Results as given in BindingDB's records for patent US12310975 (Arvinas Operations, 2025).

Molecular target: B-cell lymphoma 6 protein (Homo sapiens, UniProt P41182)
Experiment: BCL6 TR-FRET Protocol
Experimental: Assay buffer A: 50 mM HEPES pH 7.5, 125 mM NaCl, 0.01% TritonX.Assay buffer B (made fresh): buffer A+1 mM Glutathione (or 0.5 mM DTT).Assay buffer C (made fresh): buffer B+0.03% BSA.Black Proxy plates, 96 well.15 μl final reaction volumes (BCoR-Cy5 100 nM, SA-Eu 2 nM, BCL6-avitag 2 nM).134 μM BCL6-Avitag-Biotin stock: made fresh by adding 2 μl of BCL6-Avitag-Biotin to 31.5 ml Buffer C.1 mM BCoR-Cy5 peptide (LifeTein) stock in Dimethylformamide (DMF).300 nM BCoR-Cy5 working stock: made fresh by adding 4.5 μl of the 1 mM BCoR-Cy5 peptide stock to 15 ml Buffer B.10 μM Eu-Streptavidin (Lance Eu-W1024 Streptavidin, PerkinElmer) stock solution.6 nM Eu-Streptavidin working stock: made fresh by adding 9 μl Eu-Streptavidin stock solution to 15 ml Buffer A.Compounds were diluted to 10 mM. Twenty microliters of DMSO was aliquoted to each well of the microtiter plates. From the 10 mM compound stock, 8.7 ul was aliquoted to the 20 ul DMSO and 3-fold serial dilutions (12 pt […] tritration plate, 96 well, 100% DMSO) performed. Five ul from the titration plate wells was aliquoted to 45 ul Buff C (Intermediate dilution plates, 10% DMSO).Spot 1.5 μl compound titrations to 384-well plates in duplicate, and spot 3.5 μl [8.5 nM] BCL6-bio protein to each well. The plate was mix briefly, centrifuged, and incubated for 30 minutes at room temperature.Mix 14 mls of BCoR-Cy5 [300 nM] and 14 mls [6 nM] Eu-Streptavidin. Spot 10 μl BCoR-Cy5/SA-Eu (1:1) mix to each well. The plates were incubated for 2 hours and then read on an Envision plate reader.

Row | SMILES | IC50
1 | CNC(=O)COc1cc2cc(Nc3nc(N4CCN(CC5CCN(c6cc(OC)cc7c6C(=O)N(C6CCC(=O)NC6=O)C7=O)CC5)CC4)ncc3Cl)ccc2n(C(C)C)c1=O (configuration not stated) [US12310975, Example 414] | < 10 nM
2 | CCC(C1CCN(c2ccc3c(c2)C(=O)N(C2CCC(=O)NC2=O)C3=O)CC1)N1CCN(c2ncc(Cl)c(Nc3ccc4c(c3)cc(OCC(=O)NC)c(=O)n4C)n2)CC1 (configuration not stated) [US12310975, Example 337] | < 10 nM
3 | Cn1c(=O)c(OC2COC2)cc2cc(Nc3nc(N4CCC(CN5CCN(c6ccc7c(c6)C(=O)N(C6CCC(=O)NC6=O)C7=O)CC5)CC4)ncc3Cl)ccc21 (configuration not stated) [US12310975, Example 223] | > 100 nM
4 | CNC(=O)COc1cc2cc(Nc3nc(N4CCC(CN5CCC6(CC5)CN(c5cccc(C(=O)NC7CCC(=O)NC7=O)c5F)C6)CC4)ncc3Cl)ccc2n(C(C)C)c1=O (configuration not stated) [US12310975, Example 419] | < 10 nM
5 | CNC(=O)COc1cc2cc(Nc3nc(N4CCC(CN5CCCN(c6cccc(N7CCC(=O)NC7=O)c6)CC5)CC4)ncc3Cl)ccc2n(C(C)C)c1=O [US12310975, Example 498] | > 100 nM
6 | CNC(=O)COc1cc2cc(Nc3nc(N4CCC(OC5CC6(CCN(c7cccc(C(=O)NC8CCC(=O)NC8=O)c7F)CC6)C5)CC4)ncc3Cl)ccc2n(C(C)C)c1=O (configuration not stated) [US12310975, Example 433] | > 100 nM
7 | CNC(=O)COc1cc2cc(Nc3nc(N4CC5(CCN(CC6CCN(c7cccc8c7C(=O)N(C7CCC(=O)NC7=O)C8=O)CC6)CC5)C4)ncc3Cl)ccc2n(C(C)C)c1=O (configuration not stated) [US12310975, Example 426] | < 10 nM
8 | CNC(=O)COc1cc2cc(Nc3cc(N4CCN(C(C)(C)C5CCN(c6ccc7c(c6)C(=O)N(C6CCC(=O)NC6=O)C7=O)CC5)CC4)ncc3Cl)ccc2n(C)c1=O (configuration not stated) [US12310975, Example 261] | > 100 nM
9 | CNC(=O)COc1cc2cc(Nc3nc(N4CCN(C(C)(C)C5CCN(c6ccc(OC)c(C(=O)NC7CCC(=O)NC7=O)c6F)CC5)CC4)ncc3Cl)ccc2n(C)c1=O (configuration not stated) [US12310975, Example 468] | < 10 nM
10 | CNC(=O)COc1cc2cc(Nc3cc(N4CCN(CC5CCN(c6ccc7c(c6)C(=O)N(C6CCC(=O)NC6=O)C7=O)CC5)CC4)ncc3Cl)ccc2n(C)c1=O (configuration not stated) [US12310975, Example 253] | < 10 nM
11 | CNC(=O)COc1cc2cc(Nc3nc(N4CCC(C5(N6CCC(c7ccc8c(c7)C(=O)N(C7CCC(=O)NC7=O)C8=O)CC6)CC5)CC4)ncc3Cl)ccc2n(C)c1=O (configuration not stated) [US12310975, Example 482] | < 10 nM
12 | CNC(=O)COc1cc2cc(Nc3nc(N4CCC(OC5CC6(CCN(c7cccc(C(=O)NC8CCC(=O)NC8=O)c7OC)CC6)C5)CC4)ncc3Cl)ccc2n(C(C)C)c1=O (configuration not stated) [US12310975, Example 449] | > 100 nM
